Measurements reported in patent publication US12473249B2, “Aromatic compounds and pharmaceutical uses thereof” (BASF AS, priority 2018, dated 2025).

How the values were obtained:
Type in all cases: in vivo, mouse
[1] = system: C57BL/6 mice; assay: Hepatic steatosis in oral PN diet fed C57BL/6 mice, initial experiment (Oil Red O); settings: 19 days, 0.3 mmol/kg bw day in MCT by orogastric gavage
Source text: (§1) Male C57BL/6 mice, 6 to 8 weeks old at initiation of the experiments, were used for all experimental groups. Mice were fed either an ad libitum diet of standard rodent chow (calorie composition: 26% protein, 14% fat, 60% carbohydrates) and water or a parenteral nutrition (PN) solution that mimics the PN diet used in neonatal intensive care units. The PN solution was a fat-free, high-carbohydrate liquid diet (20% dextrose, 2% essential and nonessential amino acids, 0.2% pediatric trace elements, 0.5% pediatric multivitamins, 30 mEq of sodium, 20 mEq of potassium, 15 mEq of calcium (as calcium gluconate), 10 mEq of magnesium, 10 mEq of phosphate, 5 mEq of acetate, and 30 mEq of chloride per liter) administered as a single 50 mL bottle per cage which mice consumed ad libitum. […] Prince et al., JPEN J Parenter Enteral Nutr., 2014; 38(5): 608-616.
In the initial experiment, only Compound A was tested. The results of this experiment are described in Example 14.
Male C57BL/6 mice, 6 weeks old at initiation of experiments, were divided into three groups (10 mice per group). One group was fed an ad libitum diet of standard rodent chow and water. The group fed standard rodent chow received no additional treatments during the experimental period and served as a negative control group. The two other groups were fed the above-described PN diet. […]

[2] = system: C57BL/6 mice; assay: Hepatic steatosis and organ mass in oral PN diet fed C57BL/6 mice, subsequent experiment at two dosages (H&E); settings: 19 days
Source text: as §1
In a subsequent experiment, both Compound A and Compound B were tested at two dosages. The results of this experiment are described in Example 15.
Male C57BL/6 mice, 6 to 8 weeks old at initiation of the experiments, were used for all experimental groups. One group was fed an ad libitum diet of standard rodent chow and water. The group fed standard rodent chow received no additional treatments during the experimental period and served as a negative control group. Seven other groups (10 mice per group) were fed the PN solution described above ad libitum.
Of the seven groups that received the PN diet, each group received one of the following orogastric protocols administered every other day over 19 days: • (1) Saline: saline solution administered isovolumetric with the Omegaven® group; • (2) MCT: medium-chain triglyceride oil (MCT) (Nestle™ HealthCare Nutrition, Florham Park, NJ), at a dose of 7.4 g of fat/kg body weight; • (3) Omegaven®: Omegaven® (commercial fish oil lipid emulsion) at a dose of 2.4 g fat/kg body weight; • (4) Compound A LOW: Compound A at a dose of 0.3 mmol/kg bw day (diluted in MCT to 0.0375 mmol/mL, resulting in administration of 7.4 g of MCT/kg weight); • (5) Compound A HI: Compound A at a dose of 0.6 mmol/kg bw day (diluted in MCT to 0.075 mmol/mL, resulting in administration of 7.4 g of MCT/kg weight); • (6) Compound B LOW: Compound B at a dose of 0.3 mmol/kg bw day (diluted in MCT to 0.0375 mmol/mL, resulting in administration of 7.4 g of MCT/kg weight); and • (7) Compound B HI: Compound B at a dose of 0.6 mmol/kg bw day (diluted in MCT to 0.075 mmol/mL, resulting in administration of 7.4 g of MCT/kg weight).
After 19 days of treatment, organs were harvested, including the liver, kidney, and spleen, which were analyzed for relative weight between each group. Livers were also fixed and frozen on dry ice, then stored at −80° C. for hematoxylin and eosin (H&E) stain analysis and Oil Red O analysis.

[3] = system: C57BL/6 mice; assay: Hepatic steatosis in PN-fed C57BL/6 mice intravenously administered saline, Intralipid or Omegaven
Protocol: Male C57BL/6 mice, 6 to 8 weeks old at initiation of the experiments, were used for all experiments. One group was fed an ad libitum diet of standard rodent chow and water. Six other groups (10 mice per group) were fed a parenteral nutrition (PN) solution ab libitum as described above.
The PN-fed groups received tail vein injections every other day of saline, Omegaven® dosed at 2.4 g/kg/day, or Intralipid® (commercial soybean oil lipid emulsion) dosed at 2.4 g/kg/day and were treated with orogastric gavage administration (every other day) of either MCT or Compound A dosed at 0.6 mmol/kg bw. Intravenous saline was isovolumetric to Intralipid® groups. MCT orogastric gavage was isovolumetric to Compound A treatment (200 μl). The 6 experimental PN diet groups are listed below: • (1) Saline (intravenous)+PN+MCT (gavage) • (2) Intralipid® (intravenous)+PN+MCT (gavage) • (3) Omegaven® (intravenous)+PN+MCT (gavage) • (4) Saline (intravenous)+PN+Compound A (gavage) • (5) Intralipid® (intravenous)+PN+Compound A (gavage) • (6) Omegaven® (intravenous)+PN+Compound A (gavage)

[4] = oral PN diet, high and low dosages, FIG. 18
[5] = PN diet, 19 days, 0.6 mmol/kg bw by gavage, FIGS. 20-21

- liver architecture ([1]; oral PN diet): Normal liver architecture
- body mass vs chow-fed or PN-fed saline groups [2, 4]: not significantly different
- liver/body mass vs chow-fed or PN-fed saline groups [2, 4]: not significantly different
- spleen/body mass vs chow-fed or PN-fed saline groups [2, 4]: not significantly different
- normalized body mass vs any other experimental group [3, 5]: not significantly different
- normalized kidney mass vs any other experimental group [3, 5]: not significantly different
- normalized liver mass vs any other experimental group [3, 5]: not significantly different
- normalized spleen mass vs any other experimental group [3, 5]: not significantly different
SMILES: CCCCCOc1cccc(C(=O)O)c1C [Compound A, 2-methyl-3-(pentyloxy)benzoic acid]
- development of steatosis induced by an oral PN diet (Red Oil O stain in isolated liver sections) ([1]; FIG. 13): prevented the development of steatosis
- development of steatosis induced by an oral PN diet (H&E stain in isolated liver sections) ([2]; 0.3 and 0.6 mmol/kg bw day in MCT by orogastric gavage, FIGS. 14-17): prevented the development of steatosis
- development of steatosis induced by an oral PN diet (H&E stain in isolated liver sections) ([3]; PN diet with intravenous saline, Intralipid or Omegaven, 0.6 mmol/kg bw by gavage every other day, FIGS. 22-25): prevented the development of steatosis
- development of steatosis (Oil Red O stain in isolated liver sections) ([3]; PN diet with intravenous saline, Intralipid or Omegaven, 0.6 mmol/kg bw by gavage every other day, FIGS. 26-29): prevented the development of steatosis
- quantification of lipid accumulation (Oil Red O) as compared with the chow-fed control ([3]; PN diet with intravenous saline, Intralipid or Omegaven, 0.6 mmol/kg bw by gavage, FIG. 30): prevented the development of steatosis
